Measured values from PubChem BioAssay AID1963846 (Molecular Pharmacology Branch, DTP, NCI, 2024).

System: 454973-116-R2-J3-PDC complex spheroid viability
Test: Anticancer human tumor 454973-116-R2-J3-PDC patient-derived pancreatic carcinoma cell line growth inhibition [POLQ]
Settings: for IC50: curve of first compound; for viability, T/C: stronger effect = lower value
Summary of the method: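 Patient-derived tumour cells were co-cultured with HUVEC and mesenchymal stem cells as multicellular spheroids at 37 °C. They were treated with POLQ inhibitors (novobiocin, ART-558, RP6685) alone or combined with other agents. Top concentrations were at or near clinical Cmax (otherwise 10 microM; SN-38 at 1 microM), decreasing in half-log steps.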

[1] = second compound 0.0316 µM, first compound 0.0316 µM
[2] = second compound 0.0316 µM, first compound 0.1 µM
[3] = second compound 0.0316 µM, first compound 0.316 µM
[4] = second compound 0.0316 µM, first compound 1 µM
[5] = second compound 0.0316 µM, first compound 3.16 µM
[6] = second compound 0.0316 µM, first compound 10 µM
[7] = second compound 0.1 µM, first compound 0.0316 µM
[8] = second compound 0.1 µM, first compound 0.1 µM
[9] = second compound 0.1 µM, first compound 0.316 µM
[10] = second compound 0.1 µM, first compound 1 µM
[11] = second compound 0.1 µM, first compound 3.16 µM
[12] = second compound 0.1 µM, first compound 10 µM
[13] = second compound 0.316 µM, first compound 0.0316 µM
[14] = second compound 0.316 µM, first compound 0.1 µM
[15] = second compound 0.316 µM, first compound 0.316 µM
[16] = second compound 0.316 µM, first compound 1 µM
[17] = second compound 0.316 µM, first compound 3.16 µM
[18] = second compound 0.316 µM, first compound 10 µM
[19] = second compound 1 µM, first compound 0.0316 µM
[20] = second compound 1 µM, first compound 0.1 µM
[21] = second compound 1 µM, first compound 0.316 µM
[22] = second compound 1 µM, first compound 1 µM
[23] = second compound 1 µM, first compound 3.16 µM
[24] = second compound 1 µM, first compound 10 µM
[25] = second compound 3.16 µM, first compound 0.0316 µM
[26] = second compound 3.16 µM, first compound 0.1 µM
[27] = second compound 3.16 µM, first compound 0.316 µM
[28] = second compound 3.16 µM, first compound 1 µM
[29] = second compound 3.16 µM, first compound 3.16 µM
[30] = second compound 3.16 µM, first compound 10 µM
[31] = second compound 10 µM, first compound 0.0316 µM
[32] = second compound 10 µM, first compound 0.1 µM
[33] = second compound 10 µM, first compound 0.316 µM
[34] = second compound 10 µM, first compound 1 µM
[35] = second compound 10 µM, first compound 3.16 µM
[36] = second compound 10 µM, first compound 10 µM
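Also: spheroids exposed to drugs for seven days before measurement.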
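For viability, T/C in this document: percent viability relative to DMSO vehicle control wells taken as 100%.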

O=c1[nH]cc(F)c(=O)[nH]1 + Nc1ccc(C#CCN(C(=O)Cc2ncc(C(F)(F)F)cc2C(F)(F)F)c2ccc(F)cc2)nn1
IC50 (second compound 0.0316 µM): 1.73 µM
IC50 (second compound 0.1 µM): 1.74 µM
IC50 (second compound 0.316 µM): 1.85 µM
IC50 (second compound 1 µM): 1.31 µM
IC50 (second compound 3.16 µM): 1.55 µM
IC50 (second compound 10 µM): 1.55 µM
viability, T/C [1]: 108%
viability, T/C [2]: 116%
viability, T/C [3]: 102%
viability, T/C [4]: 67%
viability, T/C [5]: 28.6%
viability, T/C [6]: 33.2%
viability, T/C [7]: 105%
viability, T/C [8]: 103%
viability, T/C [9]: 97.4%
viability, T/C [10]: 69.2%
viability, T/C [11]: 27.2%
viability, T/C [12]: 30.2%
viability, T/C [13]: 107%
viability, T/C [14]: 106%
viability, T/C [15]: 103%
viability, T/C [16]: 71%
viability, T/C [17]: 29.2%
viability, T/C [18]: 33.9%
viability, T/C [19]: 108%
viability, T/C [20]: 102%
viability, T/C [21]: 109%
viability, T/C [22]: 56.1%
viability, T/C [23]: 28.1%
viability, T/C [24]: 32.1%
viability, T/C [25]: 120%
viability, T/C [26]: 117%
viability, T/C [27]: 106%
viability, T/C [28]: 63.5%
viability, T/C [29]: 25.4%
viability, T/C [30]: 32.5%
viability, T/C [31]: 119%
viability, T/C [32]: 118%
viability, T/C [33]: 115%
viability, T/C [34]: 63.7%
viability, T/C [35]: 24.3%
viability, T/C [36]: 31.1%

CC(C)n1c(=O)n(C)c2cnc3cc(F)c(-c4ccc(OCCCN5CCCCC5)nc4)cc3c21 + COC1C(OC(N)=O)C(O)C(Oc2ccc3c(O)c(NC(=O)c4ccc(O)c(CC=C(C)C)c4)c(=O)oc3c2C)OC1(C)C
IC50 (second compound 0.0316 µM): > 10 µM
IC50 (second compound 0.1 µM): > 10 µM
IC50 (second compound 0.316 µM): > 10 µM
IC50 (second compound 1 µM): > 10 µM
IC50 (second compound 3.16 µM): > 10 µM
IC50 (second compound 10 µM): > 10 µM
viability, T/C [1]: 99.5%
viability, T/C [2]: 108%
viability, T/C [3]: 114%
viability, T/C [4]: 110%
viability, T/C [5]: 111%
viability, T/C [6]: 85.9%
viability, T/C [7]: 107%
viability, T/C [8]: 112%
viability, T/C [9]: 108%
viability, T/C [10]: 114%
viability, T/C [11]: 93.7%
viability, T/C [12]: 95.6%
viability, T/C [13]: 115%
viability, T/C [14]: 113%
viability, T/C [15]: 113%
viability, T/C [16]: 116%
viability, T/C [17]: 105%
viability, T/C [18]: 88%
viability, T/C [19]: 116%
viability, T/C [20]: 107%
viability, T/C [21]: 115%
viability, T/C [22]: 112%
viability, T/C [23]: 100%
viability, T/C [24]: 93.8%
viability, T/C [25]: 118%
viability, T/C [26]: 107%
viability, T/C [27]: 112%
viability, T/C [28]: 116%
viability, T/C [29]: 106%
viability, T/C [30]: 92.5%
viability, T/C [31]: 120%
viability, T/C [32]: 103%
viability, T/C [33]: 101%
viability, T/C [34]: 107%
viability, T/C [35]: 101%
viability, T/C [36]: 84.9%

CCc1cc2c(N3CCc4c(cc(Cn5ccnc5)cc4-c4cn(C)nc4C(F)(F)F)C3=O)ccnc2c(OC)n1 + Cc1cccc(N(C)C(=O)C2C(O)CCN2c2nc(C)cc(C(F)(F)F)c2C#N)c1
IC50 (second compound 0.0316 µM): > 10 µM
IC50 (second compound 0.1 µM): > 10 µM
IC50 (second compound 0.316 µM): > 10 µM
IC50 (second compound 1 µM): > 10 µM
IC50 (second compound 3.16 µM): > 10 µM
IC50 (second compound 10 µM): > 10 µM
viability, T/C [1]: 89.3%
viability, T/C [2]: 86.2%
viability, T/C [3]: 93.7%
viability, T/C [4]: 77.8%
viability, T/C [5]: 82.2%
viability, T/C [6]: 62%
viability, T/C [7]: 102%
viability, T/C [8]: 86%
viability, T/C [9]: 82%
viability, T/C [10]: 85.9%
viability, T/C [11]: 69.3%
viability, T/C [12]: 62.1%
viability, T/C [13]: 94%
viability, T/C [14]: 89%
viability, T/C [15]: 84.4%
viability, T/C [16]: 83.4%
viability, T/C [17]: 74%
viability, T/C [18]: 61.5%
viability, T/C [19]: 95.2%
viability, T/C [20]: 85.2%
viability, T/C [21]: 96%
viability, T/C [22]: 78.4%
viability, T/C [23]: 80.8%
viability, T/C [24]: 61.7%
viability, T/C [25]: 97.8%
viability, T/C [26]: 97.8%
viability, T/C [27]: 91.2%
viability, T/C [28]: 74%
viability, T/C [29]: 72.2%
viability, T/C [30]: 57.3%
viability, T/C [31]: 91.3%
viability, T/C [32]: 87.5%
viability, T/C [33]: 72.1%
viability, T/C [34]: 74%
viability, T/C [35]: 70.3%
viability, T/C [36]: 55.8%
